Data from article PMC6044835, “Expression, Purification, and Biochemical Characterization of the Flavocytochrome P450 CYP505A30 from Myceliophthora thermophila” (ACS Omega, 2017).
“And” between values parts separate entries of the source, which are not always exact repeats. Equal entries are not always repeated. Where two headings read alike, the source gives them in different places.

Tests used:
[1] = molecular target: T1, CYP505A30 (Thermothelomyces thermophilus, UniProt G2QDZ3); experiment: UV-visible spectral binding titration of imidazole-type inhibitors (Soret red shift by distal heme iron coordination) to intact CYP505A30 in 50 mM potassium phosphate pH 7.0 (25 °C stated for the substrate titrations), hyperbolic fit for bifonazole.; design: gene MYCTH_101224; intact CYP505A30, amino acids 1-1080, N-terminal hexahistidine tag (pET15b), expressed in E. coli; settings: read-out: KD values (azole/imidazole inhibitors)
Source text: Figure 5 UV–visible spectroscopic analysis of CYP505A30 and its heme domain. […] The sodium dithionite-reduced ferrous form (dotted line) has its Soret maximum at 411 nm and a single visible region absorbance band at 546 nm. The ferrous, CO-bound form (thin solid line) has its Soret maximum at 450 nm and a visible band at 550 nm. The ferric heme NO-bound form (dashed line) has a Soret maximum at 434 nm and visible region bands at 543 and 573 nm. […] For clarity, the visible region is also shown at 5× magnification. […] The substrate-free heme domain (4.9 μM) is shown with a thick solid line. […] Each ΔAbs point is derived from the value of the difference peak absorbance maximum (at 388 nm) minus the difference trough absorbance minimum (at 417 nm). […]
The wavelengths of the absorbance minimum and maximum were identified from the difference spectra, and a maximal induced absorbance change (ΔAmax) at each point in the titration was determined by subtracting the absorbance at the wavelength minimum from that at the absorbance maximum, using the same wavelength pair throughout each titration. ΔAmax values were then plotted against ligand concentration, and data were fitted using either a hyperbolic (Michaelis–Menten) function or the Morrison function for tight-binding ligands, to determine dissociation constants (KD values), as described previously.[38],[52]

[2] = molecular target: T1, CYP505A30; experiment: Stopped-flow kinetics of flavin reduction by NAD(P)H; format: biochemical, Myceliophthora thermophila
[3] = molecular target: T2, CYP505A30 heme domain (Thermothelomyces thermophilus, UniProt G2QDZ3); experiment: UV–visible spectral binding titration with CYP505A30 heme domain; settings: for HS (%): extent of HS heme iron accumulated, heme domain, estimated to nearest 5%
[4] = molecular target: T1, CYP505A30; experiment: UV–visible spectral binding titration with intact CYP505A30; settings: for HS (%): extent of HS heme iron accumulated, intact CYP505A30, estimated to nearest 5%
[5] = molecular target: T1, CYP505A30; settings: for kcat: reduction of the electron acceptor, 25 °C
[6] = molecular target: T1, CYP505A30
[7] = molecular target: T1, CYP505A30; experiment: Steady-state fatty acid-dependent NADPH oxidation
[8] = molecular target: T2, CYP505A30 heme domain
[9] = tested on: P450 BM3; settings: P450 BM3, similar conditions; cited from earlier work
[10] = tested on: P450 BM3; design: method as in PMID 1727637; settings: cited from earlier work
[11] = molecular target: T1, CYP505A30; settings: CYP505A30, GC–MS
[12] = molecular target: Myceliophthora thermophila flavocytochrome P450 CYP505A30 (P450-CPR fusion enzyme), intact (Myceliophthora thermophila); experiment: SEC-MALS; 5 mg protein samples in buffer A (50 mM potassium phosphate, pH 7.0) containing 200 mM KCl; integrated Superdex 200 gel filtration followed at once by a DAWN EOS MALLS detector; monomer and dimer of the intact enzyme
[13] = substrate: CCCCCCCCCCCCCCC(=O)O; experiment: purified protein, by the assay type; settings: other: fatty acid-induced NADPH oxidation, 25 °C
[14] = substrate: CCCCCCCCCCCCCC(=O)O; experiment: purified protein, by the assay type; settings: other: fatty acid-induced NADPH oxidation, 25 °C
[15] = substrate: CCCCCCCCCCCC(=O)O; experiment: purified protein, by the assay type; settings: other: fatty acid-induced NADPH oxidation, 25 °C
[16] = substrate: CCCCC/C=C\C/C=C\C/C=C\C/C=C\CCCC(=O)O; experiment: purified protein, by the assay type; settings: other: fatty acid-induced NADPH oxidation, 25 °C
[17] = KD, substrate binding to intact CYP505A30, heme absorbance change, 25 °C
[18] = fatty acid-induced NADPH oxidation, 25 °C, 200 μM NADPH
[19] = fatty acid-dependent NADPH oxidation

c1c[nH]cn1 [imidazole]
Kd [1]: 723 µM

NC(=O)C1=CN([C@@H]2O[C@H](COP(=O)(O)OP(=O)(O)OC[C@H]3O[C@@H](n4cnc5c(N)ncnc54)[C@H](OP(=O)(O)O)[C@@H]3O)[C@@H](O)[C@H]2O)C=CC1 [NADPH, reduced nicotinamide adenine dinucleotide phosphate]
gradient of kobs vs temperature ([2]; 10 to 35 °C, 1 mM NADPH): 14.5 ± 1.5 s^–1 °C^–1 | klim flavin reduction ([2]; 10 °C): ~82 s^–1 | kobs flavin reduction ([2]; 10 °C, across [NADPH] range up to 1.2 mM): 82.4 ± 9.1 s^–1 | klim flavin reduction ([2]; 25 °C): ~250 s^–1 | kobs flavin reduction (highest rate constant) ([2]; 35 °C, 1 mM NADPH): 441 ± 11 s^–1

CCCCCCCCCCCCCCCC(=O)NCC(=O)O [N-palmitoylglycine]
HS (%) [3]: 75% | HS (%) [4]: 95%

CCCCCCCCCCCCCCCCCC(=O)O [octadecanoic acid]
Kd [3]: 5 ± 0.7 µM | HS (%) [3]: 10% | Kd [4]: 11.9 ± 1 µM | HS (%) [4]: 15%

CCCCCCCCCCCCCCCC(=O)O [hexadecanoic acid]
Kd [3]: 1 ± 0.4 µM | HS (%) [3]: 55% | Kd [4, 17]: 10.5 ± 0.2 µM | HS (%) [4]: 80%

cytochrome c: Cytochrome c (horse heart; Sigma-Aldrich), electron acceptor substrate for CPR enzymes
fold slower kcat than the BM3 enzyme ([5]; BM3 under similar conditions): approximately 7.5 fold | Km ([5]; read-out: KM (electron acceptor), NADPH as electron donor): 79.3 ± 10.3 µM | kcat ([5]; NADH as electron donor): 29.5 ± 2.4 s^–1 | kcat ([5]; NADPH as electron donor): 29.7 ± 0.7 s^–1

c1ccc(-n2ccnc2)cc1 [1-phenylimidazole]
Kd ([4]; KD, imidazole-based inhibitors, distal coordination of heme iron, intact CYP505A30): 3.4 ± 0.2 µM

CCCCCCCCCCCCC(=O)O [tridecanoic acid]
HS (%) [6]: 65% | kcat [7, 18]: 5.0 ± 0.3 s^–1 | Kd [3]: 4.8 ± 0.3 µM | Kd [4, 17]: 2.7 ± 0.3 µM | HS (%) [8]: 30%

CCCCCCCCCCCCCC(=O)O [tetradecanoic acid]
kcat [9]: 30.8 ± 1.5 s^–1 | kcat [7, 18]: 1.21 ± 0.1 s^–1 | Kd [3]: 3.9 ± 0.3 µM | HS (%) [3]: 85% | Kd [4, 17]: 7.4 ± 0.2 µM | HS (%) [4]: 80% | ω-1 hydroxylated product proportion [10]: 58% | ω-2 hydroxylated product proportion [10]: 21% | ω-3 hydroxylated product proportion [10]: 21% | ω-1 hydroxylated product proportion [11]: 63% | ω-2 hydroxylated product proportion [11]: ~28% | ω-3 hydroxylated product proportion [11]: 9% | ω-1 hydroxylated product proportion ([11]; listed as myristic acid): approximately 63%

CCCCCCCCCCCCCCCCC(=O)O [heptadecanoic acid]
Kd [3]: 8.7 ± 0.8 µM | HS (%) [3]: 20% | Kd [4]: 4.1 ± 0.7 µM | HS (%) [4]: 10%

Clc1ccc(COC(Cn2ccnc2)c2ccc(Cl)cc2Cl)cc1 (stereo not shown) [econazole]
Kd ([4]; KD): 10 ± 0.9 µM

CCCCCCCCCC(=O)O [decanoic acid]
HS (%) [6]: 30% | Kd ([4]; KD): 21.1 ± 2 µM

Myceliophthora thermophila flavocytochrome P450 CYP505A30 (P450-CPR fusion enzyme), intact
stoichiometry N [12]: 2

CCCCCCCCCCCCCCC(=O)O [pentadecanoic acid]
KD (Michaelis–Menten fit of steady-state NADPH oxidation) [7, 19]: 7.8 µM | kcat [7, 19]: ~450 min^–1 | Kd [3]: 1.1 ± 0.3 µM | HS (%) [3]: 90% | Kd [4]: 4.4 ± 0.6 µM | HS (%) [4]: 85%

NC(=O)C1=CN([C@@H]2O[C@H](COP(=O)(O)OP(=O)(O)OC[C@H]3O[C@@H](n4cnc5c(N)ncnc54)[C@H](O)[C@@H]3O)[C@@H](O)[C@H]2O)C=CC1 [NADH, reduced nicotinamide adenine dinucleotide]
klim flavin reduction ([2]; 10 °C): 42.0 ± 3.2 s^–1

c1ccc(-c2ccc(C(c3ccccc3)n3ccnc3)cc2)cc1 (stereo not shown) [bifonazole]
Kd ([4]; KD): 69 µM and 69.1 µM

B1: CYP505A30 (Thermothelomyces thermophilus ATCC 42464) (protein)
chain: MADKTTETVPIPGPPGLPLVGNALAFDSELPLRTFQEFAEEYGEIYRLTLPTGTTLVVSSQALVHELCDDKRFKKPVAAALAEVRNGVNDGLFTAREEEPNWGIAHRILMPAFGPASIQGMFTEMHEIASQLALKWARHGPDTPIFVTDDFTRLTLDTLALCTMNFRFNSYYHDELHPFINAMGNFLTESGARAMRPAITSIFHQAANRKYWEDIEVLRKTAQGVLDTRRKHPTNRKDLLSAMLDGVDAKTGQKLSDSSIIDNLITFLIAGHETTSGLLSFAFYLLIKHQDAYRKAQEEVDRVIGKGPIKVEHIKKLPYIAAVLRETLRLCPTIPIINRAAKQDEVIGGKYAVAKDQRLALLLAQSHLDPAVYGETAKQFIPERMLDENFERLNREYPDCWKPFGTGMRACIGRPFAWQEAVLVMAMLLQNFDFVLHDPYYELHYKQTLTTKPKDFYMRAILRDGLTATELEHRLAGNAASVARSGGGGGGPSKPTAQKTSPAEAKPMSIFYGSNTGTCESLAQRLATDAASHGYAAAAVEPLDTATEKLPTDRPVVIITASFEGQPPDNAAKFCGWLKNLEGDELKNVSYAVFGCGHHDWSQTFHRIPKLVHQTMKAHGASPICDEGLTDVAEGNMFTDFEQWEDDVFWPAVRARYGAAGAVAETEDAPGSDGLNIHFSSPRSSTLRQDVREATVVGEALLTAPDAPPKKHIEVQLPDGATYKVGDYLAVLPVNSKESIGRVMRKFQLSWDSHVTIASDRWTALPTGTPVPAYDVLGSYVELSQPATKRGILRLADAAEDEATKAELQKLAGDLYTSEISLKRASVLDLLDRFPSISLPFGTFLSLLPPIRPRQYSISSSPLNDPSRATLTYSLLDSPSLANPSRRFVGVATSYLSSLVRGDKLLVSVRPTHTAFRLPDEDKMGETAIICVGAGSGLAPFRGFIQERAALLAKGTQLAAALLFYGCRSPEKDDLYRDEFDKWQESGAVDVRRAFSRVDSDDTEARGCRHVQDRLWHDREEVKALWDRGARVYVCGSRQVGEGVKTAMGRIVLGEEDAEDAISKWYETVRNDRYATDVFD
Km [13]: 7.8 ± 2.1 µM | kcat [13]: 7.5 ± 0.7 s⁻¹ | kcat/Km [13]: 960000 M⁻¹ s⁻¹ | Km [14]: 7.7 ± 1.9 µM | kcat [14]: 1.2 ± 0.1 s⁻¹ | kcat/Km [14]: 160000 M⁻¹ s⁻¹ | Km [15]: 21.2 ± 2.4 µM | kcat [15]: 4.8 ± 0.2 s⁻¹ | kcat/Km [15]: 230000 M⁻¹ s⁻¹ | Km [16]: 9.2 ± 0.5 µM | kcat [16]: 2 ± 0.1 s⁻¹ | kcat/Km [16]: 220000 M⁻¹ s⁻¹
